pIC50, pKi: −log10 of the molar value.
Key:
[1] = target: Inosine-5'-monophosphate dehydrogenase 1 (Homo sapiens, UniProt P20839); experiment: Inhibition of human IMP dehydrogenase 1
[2] = target: Inosine-5'-monophosphate dehydrogenase 2 (Homo sapiens, UniProt P12268); experiment: Inhibition of human IMP dehydrogenase 2
[3] = Inhibition of IMP dehydrogenase

Chain of Inosine-5'-monophosphate dehydrogenase 1 (P20839 whole entry): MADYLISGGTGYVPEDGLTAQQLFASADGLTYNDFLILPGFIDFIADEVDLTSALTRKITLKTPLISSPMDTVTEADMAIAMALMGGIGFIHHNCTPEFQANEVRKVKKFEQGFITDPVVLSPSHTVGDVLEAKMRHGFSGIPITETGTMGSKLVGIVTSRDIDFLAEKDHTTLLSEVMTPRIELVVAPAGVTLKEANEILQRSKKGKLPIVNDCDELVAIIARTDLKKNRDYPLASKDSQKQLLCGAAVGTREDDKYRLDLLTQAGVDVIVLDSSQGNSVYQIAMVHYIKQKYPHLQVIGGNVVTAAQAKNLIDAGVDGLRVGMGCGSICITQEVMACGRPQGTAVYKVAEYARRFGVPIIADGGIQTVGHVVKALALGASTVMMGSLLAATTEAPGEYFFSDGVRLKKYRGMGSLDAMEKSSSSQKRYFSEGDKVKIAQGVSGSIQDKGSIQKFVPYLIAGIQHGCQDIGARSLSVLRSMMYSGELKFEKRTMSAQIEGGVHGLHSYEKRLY

SMILES | pKi [1] | pKi [2] | pKi [3] | pIC50 [1]
C#Cc1nc(N)c2ncn([C@@H]3O[C@H](CNS(=O)(=O)CS(=O)(=O)NCCc4c(O)c5c(c(C)c4OC)COC5=O)[C@@H](O)[C@H]3O)c2n1 | 6.28 | 6.74 |  | 
COc1c(C)c2c(c(O)c1CCOP(=O)(O)CP(=O)(O)OC[C@H]1O[C@@H](n3cnc4c(N)nc(-c5ccccc5)nc43)[C@H](O)[C@@H]1O)C(=O)OC2 | 7.15 |  |  | 
CCc1nc(N)c2ncn([C@@H]3O[C@H](CNS(=O)(=O)CS(=O)(=O)NCCc4c(O)c5c(c(C)c4OC)COC5=O)[C@@H](O)[C@H]3O)c2n1 | 6.09 | 6.36 |  | 
NC(=O)c1c[se]c([C@@H]2O[C@H](COP(=O)(O)OP(=O)(O)OC[C@H]3O[C@@H](n4cnc5c(N)ncnc54)[C@H](O)[C@@H]3O)[C@@H](O)[C@H]2O)n1 |  |  | 7.40 | 
Nc1ncnc2c1ncn2[C@@H]1O[C@H](CNS(=O)(=O)CS(N)(=O)=O)[C@@H](O)[C@H]1O | < 4.00 | < 4.00 |  | 
COc1c(C)c2c(c(O)c1CCO)C(=O)OC2 | 4.81 | 5.52 |  | 
NC(=O)c1csc([C@@H]2O[C@H](CNS(=O)(=O)CS(=O)(=O)NC[C@H]3O[C@@H](n4cnc5c(N)ncnc54)[C@H](O)[C@@H]3O)[C@@H](O)[C@H]2O)n1 |  |  |  | 4.63
COc1c(C)c2c(c(O)c1CCNS(=O)(=O)CS(=O)(=O)NC[C@H]1O[C@@H](n3cnc4c(N)nc(-c5ccccc5)nc43)[C@H](O)[C@@H]1O)C(=O)OC2 | 6.18 | 6.51 |  | 
Nc1ncnc2c1ncn2[C@@H]1O[C@H](CO)[C@@H](O)[C@H]1O [ADENOSINE] | < 4.00 | < 4.00 |  | 
COc1c(C)c2c(c(O)c1CCNS(=O)(=O)CS(N)(=O)=O)C(=O)OC2 [MYCOPHENOLIC BIS(SULFONAMIDE)] | 4.74 | 5.40 |  | 
NC(=O)c1csc([C@@H]2O[C@H](COP(=O)(O)OP(=O)(O)OC[C@H]3O[C@@H](n4cnc5c(N)ncnc54)[C@H](O)[C@@H]3O)[C@@H](O)[C@H]2O)n1 [TIAZOFURIN ADENINE DINUCLEOTIDE] |  |  | 7.00 | 
NC(=O)c1csc([C@@H]2O[C@H](CO)[C@@H](O)[C@H]2O)n1 [TIAZOFURIN] |  |  | 7.00 | 
